{
  "source": "patent US5480867A",
  "about": "“Glucagon analogs with serine replacements” (The Rockefeller University, priority 1994, dated 1996)",
  "key": {"adenylate cyclase [1]": {"test_system": "adenylate cyclase", "details": "for % Relative Activity: adenylate cyclase activity relative to glucagon, liver membranes, analogs measured as amides; for pA2: negative logarithm of antagonist concentration reducing response to 1 unit agonist to that of 0.5 unit, measured as amides", "protocol": "Adenylate Cyclase Assay. The assay on liver membranes was performed according to Salomon et al. [Salomon, Y., Londos, C. & rodgell, M. Anal. Biochem. 58, 541, 548 (1974)]. The released cAMP was mixed with [8-^3 H]cAMP measured with a high affinity cAMP binding protein.\nThe purpose of the adenylate cyclase assay is to measure the ability of the compound under test to stimulate the activity of adenylate cyclase. The assays are used to measure relative potency, maximum activity and inhibition index.\nThe inhibition index, defined above, was determined from adenylate cyclase assays by two different protocols.\n1. A glucagon standard curve for cAMP vs glucagon concentration was established. Then another glucagon assay curve was measured in the presence of a constant amount of antagonist.\n2. A series of tubes were set up containing an amount of glucagon which will produce 90% of maximum response. Increasing amounts of antagonist were then added and the concentration that reduced the response to 45% of maximum was determined."}, "glucagon receptor": {"target": "glucagon receptor (Homo sapiens, UniProt P47871)", "sequence (P47871 26-477, species assumed)": "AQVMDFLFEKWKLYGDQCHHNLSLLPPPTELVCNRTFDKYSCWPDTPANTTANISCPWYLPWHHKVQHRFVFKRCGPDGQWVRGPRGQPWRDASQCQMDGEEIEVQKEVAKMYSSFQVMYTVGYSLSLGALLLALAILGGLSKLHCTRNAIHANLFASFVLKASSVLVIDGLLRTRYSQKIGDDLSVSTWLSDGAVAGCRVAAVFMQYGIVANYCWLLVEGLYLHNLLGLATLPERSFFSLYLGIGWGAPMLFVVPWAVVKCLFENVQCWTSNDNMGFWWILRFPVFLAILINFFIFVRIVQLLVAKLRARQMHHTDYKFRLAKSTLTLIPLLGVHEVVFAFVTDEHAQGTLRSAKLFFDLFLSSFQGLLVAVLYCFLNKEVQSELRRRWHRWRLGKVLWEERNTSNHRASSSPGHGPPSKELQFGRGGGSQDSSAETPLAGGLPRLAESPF", "details": "background statement; cited from earlier work"}, "adenylate cyclase [2]": {"test_system": "adenylate cyclase", "details": "background statement; cited from earlier work"}},
  "note": "Residues, ends and D or L forms follow the SMILES beside them. No end group written: not given here.",
  "data": [
    {"compound": "CCCC[C@H](NC(=O)[C@H](CO)NC(=O)[C@@H](NC(=O)[C@H](Cc1ccccc1)NC(=O)[C@@H](NC(=O)CNC(=O)[C@H](CCC(N)=O)NC(=O)[C@@H](N)CO)[C@@H](C)O)[C@@H](C)O)C(=O)N[C@@H](Cc1ccc(O)cc1)C(=O)N[C@@H](C)C(=O)N[C@@H](CCCCN)C(=O)N[C@@H](Cc1ccc(O)cc1)C(=O)N[C@@H](CC(C)C)C(=O)N[C@@H](CC(=O)O)C(=O)N[C@@H](CCC(N)=O)C(=O)N[C@@H](CCCNC(=N)N)C(=O)N[C@@H](CCCNC(=N)N)C(=O)N[C@@H](C)C(=O)N[C@@H](CCC(N)=O)C(=O)N[C@@H](CC(=O)O)C(=O)N[C@@H](Cc1ccccc1)C(=O)N[C@H](C(=O)N[C@@H](CCC(N)=O)C(=O)N[C@@H](Cc1c[nH]c2ccccc12)C(=O)N[C@@H](CC(C)C)C(=O)N[C@@H](CCSC)C(=O)N[C@@H](CC(N)=O)C(=O)N[C@H](C(N)=O)[C@@H](C)O)C(C)C", "note": "[Analog 4, des-His^1 Nle^9 Ala^11 Gln^16] (HELM PEPTIDE1{S.Q.G.T.F.T.S.[Nle].Y.A.K.Y.L.D.Q.R.R.A.Q.D.F.V.Q.W.L.M.N.T.[am]}$$$$V2.0)", "values": [
      {"measurement": "% Relative Activity", "setting": "adenylate cyclase [1]", "result": 0.0011, "unit": "%"},
      {"measurement": "pA2", "setting": "adenylate cyclase [1]", "result": 8.4}
    ]},
    {"compound": "CCCC[C@H](NC(=O)[C@H](CO)NC(=O)[C@@H](NC(=O)[C@H](Cc1ccccc1)NC(=O)[C@@H](NC(=O)CNC(=O)[C@H](CCC(N)=O)NC(=O)[C@H](CO)NC(=O)[C@@H](N)Cc1c[nH]cn1)[C@@H](C)O)[C@@H](C)O)C(=O)N[C@@H](Cc1ccc(O)cc1)C(=O)N[C@@H](C)C(=O)N[C@@H](CCCCN)C(=O)N[C@@H](Cc1ccc(O)cc1)C(=O)N[C@@H](CC(C)C)C(=O)N[C@@H](CC(=O)O)C(=O)N[C@@H](CCC(N)=O)C(=O)N[C@@H](CCCNC(=N)N)C(=O)N[C@@H](CCCNC(=N)N)C(=O)N[C@@H](C)C(=O)N[C@@H](CCC(N)=O)C(=O)N[C@@H](CC(=O)O)C(=O)N[C@@H](Cc1ccccc1)C(=O)N[C@H](C(=O)N[C@@H](CCC(N)=O)C(=O)N[C@@H](Cc1c[nH]c2ccccc12)C(=O)N[C@@H](CC(C)C)C(=O)N[C@@H](CCSC)C(=O)N[C@@H](CC(N)=O)C(=O)N[C@H](C(N)=O)[C@@H](C)O)C(C)C", "note": "[Analog 1, Nle^9 Ala^11 Gln^16] (HELM PEPTIDE1{H.S.Q.G.T.F.T.S.[Nle].Y.A.K.Y.L.D.Q.R.R.A.Q.D.F.V.Q.W.L.M.N.T.[am]}$$$$V2.0)", "values": [
      {"measurement": "% Relative Activity", "setting": "adenylate cyclase [1]", "result": 0.003, "unit": "%"},
      {"measurement": "pA2", "setting": "adenylate cyclase [1]", "result": 8.7}
    ]},
    {"compound": "CCCC[C@H](NC(=O)[C@H](CO)NC(=O)[C@@H](NC(=O)[C@H](Cc1ccccc1)NC(=O)[C@@H](NC(=O)CNC(=O)[C@H](CCC(N)=O)NC(=O)[C@@H](N)CO)[C@@H](C)O)[C@@H](C)O)C(=O)N[C@@H](Cc1ccc(O)cc1)C(=O)N[C@@H](C)C(=O)N[C@@H](CCCCN)C(=O)N[C@@H](Cc1ccc(O)cc1)C(=O)N[C@@H](CC(C)C)C(=O)N[C@@H](CC(=O)O)C(=O)N[C@@H](C)C(=O)N[C@@H](CCCNC(=N)N)C(=O)N[C@@H](CCCNC(=N)N)C(=O)N[C@@H](C)C(=O)N[C@@H](CCC(N)=O)C(=O)N[C@@H](CC(=O)O)C(=O)N[C@@H](Cc1ccccc1)C(=O)N[C@H](C(=O)N[C@@H](CCC(N)=O)C(=O)N[C@@H](Cc1c[nH]c2ccccc12)C(=O)N[C@@H](CC(C)C)C(=O)N[C@@H](CCSC)C(=O)N[C@@H](CC(N)=O)C(=O)N[C@H](C(N)=O)[C@@H](C)O)C(C)C", "note": "[Analog 3, des-His^1 Nle^9 Ala^11 Ala^16] (HELM PEPTIDE1{S.Q.G.T.F.T.S.[Nle].Y.A.K.Y.L.D.A.R.R.A.Q.D.F.V.Q.W.L.M.N.T.[am]}$$$$V2.0)", "values": [
      {"measurement": "% Relative Activity", "setting": "adenylate cyclase [1]", "result": 0.0043, "unit": "%"},
      {"measurement": "pA2", "setting": "adenylate cyclase [1]", "result": 8.4}
    ]},
    {"compound": "SQGTFTSEYAKYLDARRAQEFVQWLMNT-NH2 [Analog 5, des-His^1 Glu^9 Ala^11 Ala^16 Glu^21]", "values": [
      {"measurement": "% Relative Activity", "setting": "adenylate cyclase [1]", "result": 0.016, "unit": "%"},
      {"measurement": "pA2", "setting": "adenylate cyclase [1]", "result": 8.5}
    ]},
    {"compound": "Nα-trinitrophenyl [12-homoarginine]glucagon", "values": [
      {"measurement": "binding to the glucagon receptor", "setting": "glucagon receptor", "result": "does bind to the glucagon receptor"},
      {"measurement": "activation of adenylate cyclase", "setting": "adenylate cyclase [2]", "result": "without significant activation of adenylate cyclase"}
    ]},
    {"compound": "CCCC[C@H](NC(=O)[C@H](CO)NC(=O)[C@@H](NC(=O)[C@H](Cc1ccccc1)NC(=O)[C@@H](NC(=O)CNC(=O)[C@H](CCC(N)=O)NC(=O)[C@@H](N)CO)[C@@H](C)O)[C@@H](C)O)C(=O)N[C@@H](Cc1ccc(O)cc1)C(=O)N[C@@H](CO)C(=O)N[C@@H](CCCCN)C(=O)N[C@@H](Cc1ccc(O)cc1)C(=O)N[C@@H](CC(C)C)C(=O)N[C@@H](CC(=O)O)C(=O)N[C@@H](C)C(=O)N[C@@H](CCCNC(=N)N)C(=O)N[C@@H](CCCNC(=N)N)C(=O)N[C@@H](C)C(=O)N[C@@H](CCC(N)=O)C(=O)N[C@@H](CC(=O)O)C(=O)N[C@@H](Cc1ccccc1)C(=O)N[C@H](C(=O)N[C@@H](CCC(N)=O)C(=O)N[C@@H](Cc1c[nH]c2ccccc12)C(=O)N[C@@H](CC(C)C)C(=O)N[C@@H](CCSC)C(=O)N[C@@H](CC(N)=O)C(=O)N[C@H](C(N)=O)[C@@H](C)O)C(C)C", "note": "[Analog 2, des-His^1 Nle^9 Ala^16] (HELM PEPTIDE1{S.Q.G.T.F.T.S.[Nle].Y.S.K.Y.L.D.A.R.R.A.Q.D.F.V.Q.W.L.M.N.T.[am]}$$$$V2.0)", "values": [
      {"measurement": "% Relative Activity", "setting": "adenylate cyclase [1]", "result": 0.001, "unit": "%"},
      {"measurement": "pA2", "setting": "adenylate cyclase [1]", "result": 8.4}
    ]}
  ]
}
